In patent US7713971B2, “1,2,4-triazine derivatives, preparation and use thereof in human therapy” (Pierre Fabre Medicament, priority 2005, dated 2010):
Where two headings read alike, the source gives them in different places.

Experiments:
human PPARγ = target: T1, human PPARγ (Homo sapiens, UniProt P37231); test: Reporter gene transactivation, hPPAR-GAL4 gamma; type: cell-based; conditions: transfected Cos-7 cells, Gal-4 luciferase reporter, 24 hours treatment
T1 construct: expressed in transfected cells; host or cells: Cos-7 cells (ATCC, CRL-1651)
T1 sequence (P37231 238-503 limits assumed): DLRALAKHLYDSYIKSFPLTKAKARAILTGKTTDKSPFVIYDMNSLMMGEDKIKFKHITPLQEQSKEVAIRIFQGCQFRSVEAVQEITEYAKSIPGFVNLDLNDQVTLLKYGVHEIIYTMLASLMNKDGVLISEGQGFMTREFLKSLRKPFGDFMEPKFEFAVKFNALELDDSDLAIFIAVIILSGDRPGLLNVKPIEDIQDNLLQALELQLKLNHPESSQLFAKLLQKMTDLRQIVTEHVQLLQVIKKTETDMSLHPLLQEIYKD

human PPARα = target: T2, human PPARα (Homo sapiens, UniProt Q07869); test: Reporter gene transactivation, hPPAR-GAL4 alpha; type: cell-based; conditions: transfected Cos-7 cells, Gal-4 luciferase reporter, 24 hours treatment
T2 construct: expressed in transfected cells; host or cells: Cos-7 cells (ATCC, CRL-1651)
T2 sequence (Q07869 239-466 limits assumed): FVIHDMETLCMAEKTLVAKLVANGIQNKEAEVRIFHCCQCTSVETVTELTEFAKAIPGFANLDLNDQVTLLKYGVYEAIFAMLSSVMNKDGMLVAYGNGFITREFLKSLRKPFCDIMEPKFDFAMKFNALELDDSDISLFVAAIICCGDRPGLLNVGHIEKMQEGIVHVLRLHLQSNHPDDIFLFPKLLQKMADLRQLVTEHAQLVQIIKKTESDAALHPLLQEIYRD

[1] = tested on: insulin-resistant male rat (Ico: ZUCKER-fa/fa); test: Normalization of metabolic parameters (cholesterol, plasma triglycerides) in insulin-resistant rat; type: in vivo; conditions: oral route, once per day for four days, Zucker fa/fa rat unfed 16-18 hours; for change in vivo at 10 mg/kg / change in vivo at 2.5 mg/kg: 96 h
Procedure: Normalization of metabolic parameters (cholesterol, plasma triglycerides) in an insulin-resistant male rat (Ico: ZUCKER-fa/fa), unfed for 16-18 hours, after treatment by oral route, once per day for four days, with the compounds to be evaluated or their administration vehicle.
These metabolic parameters are measured by spectrophotometry at the beginning and the end of each animal's treatment.

[2] = at 10 mg/kg, read-out: Plasma cholesterol
[3] = at 10 mg/kg, read-out: Plasma triglycerides

| EC50 (human PPARγ) | EC50 (human PPARα) | SMILES | also measured |
| --- | --- | --- | --- |
| ~10 µM | > 10 µM | CCCCCCCn1nc(OCCc2cccc(OC(C)(C)C(=O)OCC)c2)c(=O)n(C)c1=O [Example 2, Ethyl 2-{3-[2-(2-heptyl-4-methyl-3,5-dioxo-2,3,4,5-tetrahydro-[1,2,4]triazin-6-yloxy)-ethyl]-phenoxy}-2-methyl-propionate] | – |
| ~10 µM | ~3 µM | CCCCCCCn1nc(OCCCc2cccc(OC(C)(C)C(=O)OCC)c2)c(=O)n(C)c1=O [Example 5, Ethyl 2-{3-[3-(2-heptyl-4-methyl-3,5-dioxo-2,3,4,5-tetrahydro-[1,2,4]triazin-6-yloxy)-propyl]-phenoxy}-2-methyl-propionate] | – |
| 1 to 3 µM | 0.3 to 1 µM | CCCCCCCn1c(=O)c(OCCCc2cccc(OC(C)(C)C(=O)OCC)c2)nn(C)c1=O [Example 7, Ethyl 2-{3-[3-(4-heptyl-2-methyl-3,5-dioxo-2,3,4,5-tetrahydro-[1,2,4]triazin-6-yloxy)-propyl]-phenoxy}-2-methyl-propionate] | – |
| 3 to 10 µM | ~0.3 µM | CCCCCCCn1c(=O)c(OCCCc2cccc(OC(C)(C)C(=O)OCC)c2)nn(CCCC(F)(F)F)c1=O [Example 8, Ethyl 2-(3-{3-[4-heptyl-3,5-dioxo-2-(4,4,4-trifluoro-butyl)-2,3,4,5-tetrahydro-[1,2,4]triazin-6-yloxy]-propyl}-phenoxy)-2-methyl-propionate] | – |
| ~10 µM | 3 to 10 µM | CCOC(=O)C(C)(C)Oc1cccc(CCCCCOc2nn(CCCC(F)(F)F)c(=O)n(C)c2=O)c1 [Example 9, Ethyl 2-methyl-2-(3-{5-[4-methyl-3,5-dioxo-2-(4,4,4-trifluoro-butyl)-2,3,4,5-tetrahydro-[1,2,4]triazin-6-yloxy]-pentyl}-phenoxy)-propionate] | – |
| ~1 µM | 0.3 to 1 µM | CCCCCCCn1nc(OCCCCCc2cccc(OC(C)(C)C(=O)OCC)c2)c(=O)n(C)c1=O [Example 10, Ethyl 2-{3-[5-(2-heptyl-4-methyl-3,5-dioxo-2,3,4,5-tetrahydro-[1,2,4]triazin-6-yloxy)-pentyl]-phenoxy}-2-methyl-propionate] | – |
| > 10 µM | – | CCCCCCCn1nc(OCCc2ccc(OC(C)(C)C(=O)OCC)cc2)c(=O)n(C)c1=O [Example 25, Ethyl 2-{4-[2-(2-heptyl-4-methyl-3,5-dioxo-2,3,4,5-tetrahydro-[1,2,4]triazin-6-yloxy)-ethyl]-phenoxy}-2-methyl-propionate] | – |
| – | 1 to 3 µM | CCCCCCCn1c(=O)c(NCCc2cccc(OC(C)(C)C(=O)OCC)c2)nn(C)c1=O [Example 59, Ethyl 2-{3-[2-(4-heptyl-2-methyl-3,5-dioxo-2,3,4,5-tetrahydro-[1,2,4]triazin-6-ylamino)-ethyl]-phenoxy}-2-methyl-propionate] | change in vivo at 2.5 mg/kg ([1]; read-out: Plasma cholesterol): -37%; change in vivo at 2.5 mg/kg ([1]; read-out: Plasma triglycerides): -13% |
| – | ~1 µM | CCCCCCCn1c(=O)c(NCCCc2cccc(OC(C)(C)C(=O)OCC)c2)nn(C)c1=O [Example 67, Ethyl 2-{3-[3-(4-heptyl-2-methyl-3,5-dioxo-2,3,4,5-tetrahydro-[1,2,4]triazin-6-ylamino)-propyl]-phenoxy}-2-methyl-propionate] | change in vivo at 10 mg/kg [1, 2]: -14%; change in vivo at 10 mg/kg [1, 3]: -23% |
| – | > 10 µM | CCCCCCCn1nc(NCCCCc2cccc(SC(C)(C)C(=O)OCC)c2)c(=O)n(CCCCCCC)c1=O [Example 98, Ethyl 2-{3-[4-(2,4-diheptyl-3,5-dioxo-2,3,4,5-tetrahydro-[1,2,4]triazin-6-ylamino)-butyl]-phenylsulfanyl}-2-methyl-propionate] | – |
| – | > 10 µM | CCCCCCCn1nc(NCCc2ccc(OC(C)(C)C(=O)OCC)cc2)c(=O)n(CCCCCCC)c1=O [Example 108, Ethyl 2-{4-[2-(2,4-diheptyl-3,5-dioxo-2,3,4,5-tetrahydro-[1,2,4]triazin-6-ylamino)-ethyl]-phenoxy}-2-methyl-propionate] | – |

Second part, the molecule before the results:

| SMILES | EC50 (human PPARγ) | EC50 (human PPARα) | also measured |
| --- | --- | --- | --- |
| CCOC(=O)C(C)(C)Oc1ccc(OCCCNc2nn(C)c(=O)n(CCCC(F)(F)F)c2=O)cc1 [Example 46, Ethyl 2-methyl-2-(4-{3-[2-methyl-3,5-dioxo-4-(4,4,4-trifluoro-butyl)-2,3,4,5-tetrahydro-[1,2,4]triazin-6-ylamino]-propoxy}-phenoxy)-propionate] | – | 0.3 to 1 µM | change in vivo at 10 mg/kg [1, 2]: -13%; change in vivo at 10 mg/kg [1, 3]: -32% |
| CCCCCCCN(CCCOc1ccc(SC(C)(C)C(=O)OCC)cc1)c1nn(C)c(=O)n(C)c1=O [Example 53, Ethyl 2-(4-{3-[(2,4-Dimethyl-3,5-dioxo-2,3,4,5-tetrahydro-[1,2,4]triazin-6-yl)-heptyl-amino]-propoxy}-phenylsulfanyl)-2-methyl-propionate] | – | 1 to 3 µM | change in vivo at 2.5 mg/kg ([1]; read-out: Plasma cholesterol): -7%; change in vivo at 10 mg/kg [1, 2]: -28%; Plasma triglycerides ([1]; at 10 mg/kg): inactive at 10 |
| CCCCCCCn1c(=O)c(NCCCCc2cccc(SC(C)(C)C(=O)OCC)c2)nn(CCCC(F)(F)F)c1=O [Example 97, Ethyl 2-(3-{4-[4-heptyl-3,5-dioxo-2-(4,4,4-trifluoro-butyl)-2,3,4,5-tetrahydro-[1,2,4]triazin-6-ylamino]-butyl}-phenylsulfanyl)-2-methyl-propionate] | – | 1 to 3 µM | – |
| CCCCCCCn1nc(NCCCCc2cccc(SC(C)(C)C(=O)OCC)c2)c(=O)n(Cc2ccccc2)c1=O [Example 101, Ethyl 2-{3-[4-(4-benzyl-2-heptyl-3,5-dioxo-2,3,4,5-tetrahydro-[1,2,4]triazin-6-ylamino)-butyl]-phenylsulfanyl}-2-methyl-propionate] | – | 1 to 3 µM | – |
| CCOC(=O)C(C)(C)Oc1ccc(CCNc2nn(CCCC(F)(F)F)c(=O)n(C)c2=O)cc1 [Example 102, Ethyl 2-methyl-2-(4-{2-[4-methyl-3,5-dioxo-2-(4,4,4-trifluoro-butyl)-2,3,4,5-tetrahydro-[1,2,4]triazin-6-ylamino]-ethyl}-phenoxy)-propionate] | – | > 10 µM | – |
| CCCCCCCn1c(=O)c(NCCc2ccc(OC(C)(C)C(=O)OCC)cc2)nn(CCCC(F)(F)F)c1=O [Example 107, Ethyl 2-(4-{2-[4-heptyl-3,5-dioxo-2-(4,4,4-trifluoro-butyl)-2,3,4,5-tetrahydro-[1,2,4]triazin-6-ylamino]-ethyl}-phenoxy)-2-methyl-propionate] | – | ~1 µM | – |
| CCOC(=O)C(C)(C)Oc1ccc(CCN(CCc2ccccc2)c2nn(C)c(=O)n(C)c2=O)cc1 [Example 114, Ethyl 2-(4-{2-[(2,4-dimethyl-3,5-dioxo-2,3,4,5-tetrahydro-[1,2,4]triazin-6-yl)-phenethyl-amino]-ethyl}-phenoxy)-2-methyl-propionate] | – | ~10 µM | – |
| CCCCCCCn1c(=O)c(N(CCc2ccccc2)CCc2ccc(OC(C)(C)C(=O)OCC)cc2)nn(C)c1=O [Example 116, Ethyl 2-(4-{2-[(4-heptyl-2-methyl-3,5-dioxo-2,3,4,5-tetrahydro-[1,2,4]triazin-6-yl)-phenethyl-amino]-ethyl}-phenoxy)-2-methyl-propionate] | – | ~10 µM | – |
| CCCCCCCn1c(=O)c(N(CCCc2ccccc2)CCc2ccc(OC(C)(C)C(=O)OCC)cc2)nn(C)c1=O [Example 117, Ethyl 2-(4-{2-[(4-heptyl-2-methyl-3,5-dioxo-2,3,4,5-tetrahydro-[1,2,4]triazin-6-yl)-(3-phenyl-propyl)-amino]-ethyl}-phenoxy)-2-methyl-propionate] | – | ~10 µM | – |
